In test [1] the test system is human spermatozoa. Briefly: Intracellular free calcium ([Ca2+]i) by single cell fura-2 imaging in human spermatozoa. Particulars: for effect of non-genomic VDR antagonist pretreatment on the calcium response to 1,25(OH)2D3: pretreatment 1-40 μM. It counts as cell-based. The method, then: The intracellular free calcium concentration ([Ca2+]i) was measured in human spermatozoa from 12 normal men. Freshly delivered semen samples went through percoll density gradient centrifugation to optimize the number of spermatozoa expressing VDR and the metabolising enzymes. […] Subsequently 80 μl sperm content were diluted in 920 μl Krebs-Ringer buffer and were loaded on polynysine-coated chambers to minimize movement of the vital spermatozoa (Lab-Tek; Nalge Nunc International, USA).
Excitation was obtained by a Polychrome V illuminator from Till Photonics (Germany) and images were acquired using a Cool Snap CCD camera (Photometrics, USA) from Robert Scientific (Malaysia).
After background subtraction, ratio images were formed using MetaFluor software.
Semen samples were separated by percoll density gradient centrifugation to ensure viable and motile spermatozoa and resuspended in capacitating media for 1.5 hours. Afterwards, loaded with 3 μM of the fluorescent probe (intracellular calcium binding) fura-2/AM (Invitrogen, USA) for 30 min, centrifuged (10 min at 300 g) and washed with Krebs-Ringer buffer (120 mM NaCl, 15 mM NaHCO3, 5 mM KCl, 1 mM CaCl2, 5 mM Na2HPO4, 1 mM MgCl2 pH 7.3). […] Subsequently, 80 μl of the sperm sample was diluted in 920 μl Krebs-Ringer buffer and loaded on polylysine-coated chambers to minimize movement of the spermatozoa (Lab-Tek; Nalge Nunc International, USA). […] Excitation was obtained by a Polychrome Villuminator from Till Photonics (Germany) and images were acquired using a Cool Snap CCD camera (Photometrics, USA) from Robert Scientific (Malaysia). […] After background subtraction, ratio images were formed using MetaFluor software.
All experiments started by using low magnification to ensure visibility of several spermatozoa simultaneously. […] All measurements of [Ca2+]i were based upon evaluation of at least three spermatozoa simultaneously (see exact number in figure legends), and were repeated in at least three separate experiments. We used 10 different semen donors to ensure that all experiments were reproduced on semen samples from at least two different men.

For test [2], the system named is human spermatozoa. Briefly: Acrosome reaction of motile spermatozoa (Pisum sativum agglutinin-FITC staining). It is filed as cell-based. The method, then: Acrosome status was assessed according to a modified version of the method described by Cross et al. 1986. […] . When more than half the head of a spermatozoon was brightly and uniformly fluorescent, the acrosome was considered to be intact. Spermatozoa without fluorescence or with a fluorescing band limited to the equatorial segment were considered to be acrosome-reacted. Spermatozoa with a fluorescing band limited to the equatorial segment were named eq-AR. The person assessing the slides was blinded to the treatment of the sample.

For test [3], the system named is human spermatozoa. Briefly: Induction of sperm motility (ABC motility) in semen samples in vitro. Particulars: for sperm motility (ABC) in young normal men: 1 nM 1,25(OH)2D3, p=0.01; for sperm motility in infertile/subfertile men: 1 nM 1,25(OH)2D3, p=0.80.
Method: The preparation was placed on the heating stage of a microscope at 37° C. and immediately examined at x400 magnification counting 200 spermatozoa. The sperm were classified as progressive motile (WHO class A+B), non-progressive motile (class C) or immotile (class D). The motility counting was repeated on a second aliquot of 10 μl well-mixed semen.
The participants produced a semen sample by masturbation. Self-reported information of duration of ejaculation abstinence was obtained. Trained technicians conducted semen analysis Semen volume was estimated by weighing. For sperm motility assessment, duplicates of 10 μl of well-mixed semen were placed on a glass slide, examined on a heating stage kept at 37° C., under a microscope at ×400 magnification, and spermatozoa were classified as progressive motile (WHO class A+B), non-progressive motile (class C) or immotile (class D). The average of the two motility assessments was used. For the assessment of the sperm concentration the samples were diluted in a solution of 0.6 mol/l NaHCO3 and 0.4% (v/v) formaldehyde in distilled water, and subsequently assessed using Bürker-Türk haemocytometer. Only spermatozoa with tails were counted. Finally, smears were prepared, Papanicolaou stained and spermatozoa morphology assessed according to strict criteria.
Their semen samples were assessed as described above. […] Motility assessment was conducted in 17 samples (in duplicates) under non-capacitating conditions (in their seminal plasma), and 3 samples were also analyzed in capacitating conditions. 7 consecutively included men were used to investigate a dose-response relationship between VD and sperm motility.
[4] abbreviates: 1,25(OH)2D3 after pretreatment with nifedipine 10 μM.
Setting [5] is: higher 1,25(OH)2D3 concentrations.

Several values for one entry are separate records, joined by “and”; a condition that tells them apart may be missing. Identical values can stand only once. Entries after “also recorded” stand apart in the source; their conditions may differ.

Take `COc1ccc2c(c1)CC[C@@H]1[C@@H]2CC[C@]2(C)[C@@H](NCCCCCCN3C(=O)C=CC3=O)CC[C@@H]12` [U73122, 1-[6-[[17fi-3-methoxyestra-1,3,5(10)-trien-17-yl]amino]hexyl]-1H-pyrrole-2,5-dione]: in the test on human spermatozoa [1] (2 μM U73122, no concentration), the “effect on the calcium response to 1,25(OH)2D3” value was “unable to induce a rapid increase in [Ca2+]i; also recorded: caused a delayed and diminished response to 1,25(OH)2D3”. For the same compound, in the test on human spermatozoa [1] (5 μM U73122), the “effect on the rapid calcium increase elicited with 1 nM 1,25(OH)2D3” value was “delayed in these spermatozoa and the amplitude was smaller or absent”. In the test with human spermatozoa [1] (5 μM U73122, normal calcium containing media), the “spermatozoa that remained low and stable in intracellular calcium” value is on record as 10-20%. Also, in the test with human spermatozoa [1] (10 μM U73122), the “increase of baseline [Ca2+]i” value is “more than 5 fold” and the “spermatozoa that increased their baseline [Ca2+]i” value is listed as above 80%. In the test on human spermatozoa [1] (U73122), the “effect of PLC inhibition on the calcium effect of progesterone” value is given as “unable to abrogate the effect of progesterone”.

In the case of `CC(=O)[C@H]1CC[C@H]2[C@@H]3CCC4=CC(=O)CC[C@]4(C)[C@H]3CC[C@]12C` [progesterone], in the test on human spermatozoa [1] (calcium free media, 5 μM EGTA), the “increase in [Ca2+]i in calcium free media with EGTA (words)” value was “Neither, 1,25(OH)2D3 nor progesterone were able to induce an increase in intracellular calcium; also recorded: could not induce an increase in [Ca2+]i”.

Consider `C=C1/C(=C\C=C2/CCC[C@]3(C)[C@@H]([C@H](C)CCCC(C)(C)O)CC[C@@H]23)C[C@@H](O)C[C@@H]1O` [1,25(OH)2D3, 1,25-dihydroxyvitamin D3], for which the “effect of pre-treatment with 1,25(OH)2D3 on the calcium effect of progesterone” value in the test on human spermatozoa [1] was “could not be abrogated”. The “maximum amplitude of the calcium increase, higher than baseline calcium level” value in the test with human spermatozoa [1] (1 nM 1,25(OH)2D3) is 5-10 fold. In the test with human spermatozoa [1] (1 nM 1,25(OH)2D3, versus capacitating media), the “calcium response in non-capacitating media” value was “lower amplitude”. Besides, the “amplitude relative to the amplitude elicited by 10 μM progesterone” value in the test with human spermatozoa [1] (1,25(OH)2D3 (1 nM elsewhere in the source)) was 40% and 40-80%. For the same compound, the “effect on intracellular calcium” value in the test with human spermatozoa [1] (1,25(OH)2D3, printed range 50 μM-10 μM, 100 μM-10 μM) is recorded as “induced a rapid increase in intracellular calcium”. For the same compound, the “increase in intracellular calcium from baseline” value in the test on human spermatozoa [1] (1,25(OH)2D3 added to motile spermatozoa, calcium containing medium) is reported as 5-10 fold. Further, the “length of repolarisation phase” value in the test with human spermatozoa [1] (setting [4]) came out at 4 min. Moreover, the “maximum amplitude of calcium increase, higher than baseline” value with human spermatozoa [1] (setting [4]) stood at 7 fold. Further, in the test with human spermatozoa [1] (1,25(OH)2D3 concentration), the “threshold for the observed all-or-nothing calcium response” value lay in the range of 10 to 50 µM. Also, the entries for the “duration of plateau phase” value in the test on human spermatozoa [1] (<10 nM 1,25(OH)2D3) and with human spermatozoa [1] (setting [5]) were “up to 50 sec” and 50 to 300 s, respectively. Moreover, in the test on human spermatozoa [1] (after addition of 1,25(OH)2D3), the “start of the calcium increase in the neck region” value was at most 5 s. Besides, the “increase in [Ca2+]i in calcium free media with EGTA (words)” value in the test on human spermatozoa [1] (calcium free media, 5 μM EGTA) was “Neither, 1,25(OH)2D3 nor progesterone were able to induce an increase in intracellular calcium; also recorded: could not induce an increase in [Ca2+]i”. In the test on human spermatozoa [1] (setting [5]), the “dependence of amplitude on concentration” value is “did not seem to increase markedly with higher concentration; also recorded: did not increase with higher 1,25(OH)2D3 concentrations”. For the same compound, in the test on human spermatozoa [1] (potentially contaminated [Ca2+]<5 uM), the “calcium response in calcium free media without EGTA” value is on record as “marked response; also recorded: increased intracellular calcium rapidly”. In the test on human spermatozoa [2] (1,25(OH)2D3 10^-9M (control 4.7%), p=0.214), the “median percentage of spermatozoa with an equatorial band (eq. AR)” value was determined as 5.3%. Also, the “median percentage of acrosome reacted spermatozoa” value with human spermatozoa [2] (1,25(OH)2D3 10^-9M, capacitating media (control 12%)) is given as 21%. Further, the “average increase in acrosome reacted spermatozoa” value in the test on human spermatozoa [2] (1,25(OH)2D3 10^-9M, capacitating media, p=0.024) came out at 6%. For the same compound, the “acrosome reacted spermatozoa in non-capacitating conditions” value in the test with human spermatozoa [2] (NaCl, 6 men, VD treated (control 3.7%)) worked out at 4.2%. In addition, the “sperm motility (ABC) in young normal men” value in the test with human spermatozoa [3] is recorded as “increased significantly; also recorded: modest increase in sperm motility”; in the test on human spermatozoa [3] (listed as calcitriol) it was “significant increase in normal men”. The “sperm motility in infertile/subfertile men” value with human spermatozoa [3] is “did not increase; also recorded: no increase in sperm motility”; in the test with human spermatozoa [3] (listed as activated VD), “did not increase in sperm motility”; with human spermatozoa [3] (listed as calcitriol), “unable to increase motility in infertile men”. Besides, the “increase in median sperm motility (ABC)” value with human spermatozoa [3] (1,25(OH)2D3 10-14M to 10^-9M, dose-response, 7 men) was 2-7%. For the same compound, the “median decrease in sperm motility compared with control” value with human spermatozoa [3] (1,25(OH)2D3 10^-5M) is given as 15%. For the same compound, in the test on human spermatozoa [3] (1,25(OH)2D3 10^-9M, p=0.006), the “median increase in sperm motility (ABC)” value is listed as 7%. Further, the “sperm motility” value in the test on human spermatozoa [3] (1,25(OH)2D3 concentrations above 10^-7M) was “decreased motility compared with control”. Also, the “increase in mean sperm motility” value in the test on human spermatozoa [3] (10^-9M 1,25(OH)2D3, 30 min, room temperature, 17 men, p=0.010) is reported as 2.9%.

For the compound `C=C1/C(=C\C=C2/CCC[C@]3(C)[C@@H]([C@H](C)/C=C/[C@@H](O)C4(C(=O)OCCCC)CC4)CC[C@@H]23)C[C@@H](O)C[C@@H]1O` [ZK159222], the “effect of nuclear VDR antagonist on the calcium response to 1,25(OH)2D3” value with human spermatozoa [1] (ZK159222 0.1-100 μM, 1 nM calcitriol) is recorded as “could not be abrogated; also recorded: unable to abrogate or suppress the effect of 1,25(OH)2D3 treatment”.

Regarding `C=C1/C(=C\C=C2/CCC[C@]3(C)[C@@H]([C@H](C)CCCC(C)(C)O)CC[C@@H]23)C[C@@H](O)C[C@H]1O` [1β, 25(OH)2D3], the “effect of non-genomic VDR antagonist pretreatment on the calcium response to 1,25(OH)2D3” value in the test on human spermatozoa [1] (1 nM calcitriol) is “completely blocked; also recorded: abrogated the response to 1,25(OH)2D3 completely”; in the test with human spermatozoa [1] (1 nM calcitriol, listed as 1β,25(OH) 2D3) it was “blocked completely”.

As for `C[C@H](CCC(=O)O)C[C@H](C)C[C@H](C)C(=O)/C=C(\O)[C@H](C)C[C@H](C)C/C=C/[C@@H](C)[C@@H](O)[C@@H](C)[C@@H](O)C[C@@H]1CC[C@@](C)([C@H]2CC[C@@](C)([C@@H](C)O)O2)O1` [ionomycin], the “increase in [Ca2+]i in calcium free media with EGTA (words)” value in the test on human spermatozoa [1] (ionomycin 500 nM) was “low but significant increase in the intracellular calcium; also recorded: elicited only a small Ca2+ rise”; in the test with human spermatozoa [1] (ionomycin 500 nM, listed as Ionomycin), “low but reproducible increase in [Ca2+]i”. Further, the “amplitude of the response from baseline” value in the test with human spermatozoa [1] (ionomycin 500 nM, calcium free media with EGTA) is on record as below 3 fold.

Regarding `C=C1CC[C@H](O)C/C1=C/C=C1\CCC[C@]2(C)[C@@H]([C@H](C)CCCC(C)(C)O)CC[C@@H]12` [25-OH D3, 25-hydroxycholecalciferol], the “effect on intracellular calcium” value in the test with human spermatozoa [1] (25-OH D3 up to 100 nM, normal media) is “no effect on intracellular calcium levels”; in the test with human spermatozoa [1] (25-OH D3 up to 100 nM, normal media, listed as 25-0H D3), “unable to elicit an increase in [Ca2+]i”.

For `C/C=C(/C)C(=O)O[C@H]1C(C)=C2[C@H]([C@@H]1OC(=O)CCCCCCC)[C@@](C)(OC(C)=O)C[C@H](OC(=O)CCC)[C@@]1(O)[C@H]2OC(=O)[C@@]1(C)O` [thapsigargin], in the test on human spermatozoa [1] (thapsigargin 4 μM), the “effect on baseline calcium concentration” value is “caused a slow increase in baseline calcium concentration”. Further, the “calcium response to 1,25(OH)2D3 after thapsigargin” value with human spermatozoa [1] (thapsigargin 4 μM, 1,25(OH)2D3 added 9 min later) was “unable to elicit a substantial calcium response; also recorded: diminished the effect of 1,25(OH)2D3”; in the test on human spermatozoa [1] (thapsigargin <1 μM), “unable to abrogate the effect of 1,25(OH)2D3”. In addition, in the test with human spermatozoa [1] (thapsigargin 4 μM, nine minutes after exposure), the “stable plateau, higher than baseline calcium concentration” value was found to be 3 fold.

The values above are taken from patent US20130045890A1, “TEST FOR MALE FERTILITY” (Rigshospitalet Copenhagen University Hospital, priority 2010, published 2013).
